Usually pIC50 stands for −log10 of the IC50, conventionally taken in molar units.

One data set relates to CYP6P2. The conditions noted are these: read-out: IC50 CYP6P2, inhibition of diethoxyfluorescein metabolism, cited from earlier work.
In data set [1] the test system is CYP6M2. The conditions noted are these: Incubation time 2h; mean ± SD; ref [38], [41]; cited from earlier work.
For a further data set, the system named is Anopheles funestus. The conditions noted are these: F1, house resting indoors, WHO Bioassay 1998, cited from earlier work.
The target of data set [2] is T1, CYP6Z2 (Anopheles gambiae, UniProt Q7PNB5).
T1 sequence (Q7PNB5 1-492): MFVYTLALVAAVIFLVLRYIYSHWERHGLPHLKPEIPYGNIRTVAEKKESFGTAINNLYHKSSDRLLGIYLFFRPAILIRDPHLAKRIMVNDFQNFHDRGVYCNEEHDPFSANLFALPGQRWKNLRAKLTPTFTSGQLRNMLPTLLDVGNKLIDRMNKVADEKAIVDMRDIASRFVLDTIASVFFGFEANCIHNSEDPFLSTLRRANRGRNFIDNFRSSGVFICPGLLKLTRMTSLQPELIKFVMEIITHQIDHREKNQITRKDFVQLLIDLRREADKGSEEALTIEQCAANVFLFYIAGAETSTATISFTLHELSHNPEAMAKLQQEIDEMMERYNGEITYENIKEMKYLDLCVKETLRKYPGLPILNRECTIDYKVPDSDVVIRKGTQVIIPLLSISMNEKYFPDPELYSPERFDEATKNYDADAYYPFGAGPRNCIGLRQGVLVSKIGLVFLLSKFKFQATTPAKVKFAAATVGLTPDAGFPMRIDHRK
T1 sequence (Q86QH5 1-679 partner): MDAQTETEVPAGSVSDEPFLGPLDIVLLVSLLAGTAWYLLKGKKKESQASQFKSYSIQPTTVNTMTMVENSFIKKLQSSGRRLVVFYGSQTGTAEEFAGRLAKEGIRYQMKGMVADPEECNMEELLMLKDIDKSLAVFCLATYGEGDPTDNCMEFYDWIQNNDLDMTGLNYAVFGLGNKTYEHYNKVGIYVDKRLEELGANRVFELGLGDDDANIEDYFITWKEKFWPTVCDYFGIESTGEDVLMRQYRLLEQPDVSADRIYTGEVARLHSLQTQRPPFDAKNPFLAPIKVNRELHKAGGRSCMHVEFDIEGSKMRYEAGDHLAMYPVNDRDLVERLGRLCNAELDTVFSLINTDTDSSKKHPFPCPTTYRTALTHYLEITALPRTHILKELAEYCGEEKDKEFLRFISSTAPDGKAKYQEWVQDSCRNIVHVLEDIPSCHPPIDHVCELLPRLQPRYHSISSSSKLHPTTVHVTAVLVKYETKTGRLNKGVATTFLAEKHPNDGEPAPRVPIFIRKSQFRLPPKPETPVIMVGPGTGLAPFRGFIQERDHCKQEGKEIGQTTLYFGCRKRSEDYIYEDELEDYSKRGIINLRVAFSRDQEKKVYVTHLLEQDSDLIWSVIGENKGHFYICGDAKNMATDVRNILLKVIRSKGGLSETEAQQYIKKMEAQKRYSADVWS
Nature of the data set: Inhibition screening of pyrethroids, diethoxyfluorescein, CYP6Z2. It counts as biochemical.

Data set [3] deals with CYP6P9a. The conditions noted are these: read-out: IC50 CYP6P9a, inhibition of diethoxyfluorescein metabolism, cited from earlier work.
Data set [4] relates to CYP6M2. The conditions noted are these: read-out: IC50 CYP6M2, inhibition of diethoxyfluorescein metabolism, cited from earlier work.
In the next data set the test system is Gambiae Complex. The conditions noted are these: WHO Bioassay 1998, cited from earlier work.
For data set [5], the system named is CYP6P9a. The conditions noted are these: two earlier studies; ref [28]; cited from earlier work.
The test system of the next data set is CYP6M7. The conditions noted are these: two earlier studies; ref [28]; cited from earlier work.
For another data set, the system named is CYP6P9b. The conditions noted are these: two earlier studies; ref [28]; cited from earlier work.
For data set [6], the system named is An. funestus strain, FUMOZ-R. Set-up: method as in PMID 26930058. The conditions noted are these: strain with upregulated P450 levels without any target-site mutations; ref [47]; cited from earlier work.
The target of data set [7] is T1, CYP6Z2. The conditions noted are these: read-out: IC50 CYP6Z2; inhibition of diethoxyfluorescein metabolism; footnote a; ref Yunta et al. 2016[8]; cited from earlier work.
[8] abbreviates: footnote b, ref Yunta et al. 2019[10].
Setting [9] is: ID 200044, 4/2009-4/2010, Kalungama, Malawi, ref Wondji CS et al. Proc Natl Acad Sci U S A. 2012;109(47):19063-70.
[10] abbreviates: ID 200045, 4/2009-4/2010, Chinkole, Malawi, ref Wondji CS et al. Proc Natl Acad Sci U S A. 2012;109(47):19063-70.
The mark [11] stands for this setting: ID 200048, 3/2000-7/2002, Catembe, Mozambique, ref Casimiro S et al. J Med Entomol. 2006;43(2):267-75.
Setting [12] is: ID 100127, F1, house resting indoors, 4/2010, VK6, Burkina Faso, ref Kwiatkowska RM et al. Gene. 2013;519(1):98-106.
Where [13] appears, read: ID 100156, F0, larval collection, 5/2009-4/2010, Chano, Ethiopia, ref Massebo F et al. Parasites Vectors. 2013;6.
[14] abbreviates: footnote a, ref Yunta et al. 2016[8].
The mark [15] stands for this setting: ID 200117, 4/2009-11/2009, Tororo, Uganda, ref Morgan JC et al. PLoS One. 2010;5(7).
Where [16] appears, read: ID 100045, F0, larval collection, 7/2010-12/2010, Ahero Division, Kenya, ref Ochomo E et al. Med Vet Entomol. 2013;27(2):156-64.
Where [17] appears, read: ID 100117, F1, house resting indoors, 4/2010, VK2, Burkina Faso, ref Kwiatkowska RM et al. Gene. 2013;519(1):98-106.
[18] abbreviates: ID 100160, F0, larval collection, 10/2008-5/2009, Nkolondom, Cameroon, ref Nwane P et al. Parasites Vectors. 2013;6.

pIC50: −log10 of the molar value. Like-named read-outs stand apart in the source and are kept apart here.

For `CC1(C)[C@H](C(=O)O[C@H](C#N)c2cccc(Oc3ccccc3)c2)[C@@H]1/C=C(\Cl)C(F)(F)F` (racemic) [λ-Cyhalothrin, λ-cyhalothrin], the pIC50 is 5.32 in the data set with CYP6P2 (setting [8]), 4.73 on CYP6Z2 [2], 5.43 in the data set on CYP6P9a [3] (setting [8]) and 5.18 in the data set on CYP6M2 [4] (setting [8]). In addition, the “% Insecticide depletion CYP6M2” value with CYP6M2 [1] is on record as 49.4 ± 0.5%. The mortality in the data set on Anopheles funestus (setting [9]) was 34.3; in the data set on Anopheles funestus (setting [10]) it was 60; in the data set on Anopheles funestus (setting [11]), 59.3; in the data set with Gambiae Complex (setting [12]) it was 7.3; in the data set on Gambiae Complex (setting [13]), 56.

With `Cc1c(COC(=O)[C@@H]2[C@H](/C=C(\Cl)C(F)(F)F)C2(C)C)cccc1-c1ccccc1` (racemic) [Bifenthrin, bifenthrin], the “depletion (metabolised) by CYP6P9a” value in the data set on CYP6P9a [5] is 68%. In addition, the pIC50 was 4.97 in the data set on CYP6P2 (setting [8]), 4.68 at CYP6Z2 [2], 5.07 in the data set on CYP6P9a [3] (setting [8]) and 5.25 with CYP6M2 [4] (setting [8]). Further, the “% Insecticide depletion CYP6M2” value in the data set with CYP6M2 [1] is on record as 38.9 ± 1.6%. Moreover, in the data set on CYP6M7, the “depletion (metabolised) by CYP6M7” value is 62%. In addition, the “depletion (metabolised) by CYP6P9b” value in the data set on CYP6P9b is 71%.

Regarding `CCOc1ccc(C(C)(C)COCc2cccc(Oc3ccccc3)c2)cc1` [Etofenprox, etofenprox], the pIC50 in the data set on CYP6P2 (setting [8]) is 5.33; against CYP6Z2 [2], 5.55; in the data set on CYP6P9a [3] (setting [8]) it was 5.09; with CYP6M2 [4] (setting [8]), 4.92. The “% Insecticide depletion CYP6M2” value with CYP6M2 [1] was 68.8 ± 1.1%.

As to `CC1(C)C(C=C(Cl)Cl)C1C(=O)OCc1cccc(Oc2ccccc2)c1` (centres unmarked) [Permethrin, permethrin], the “effectiveness with or without piperonyl butoxide (PBO), in words” value in [6] is “only effective when partnered with PBO”. Further, the pIC50 with CYP6P2 (setting [14]) is 5.07; on CYP6Z2 [7] it was 4.86; in the data set on CYP6P9a [3] (setting [14]), 5.24; in the data set with CYP6M2 [4] (setting [14]) it was 5.09. For the same compound, the “% Insecticide depletion CYP6M2” value in the data set with CYP6M2 [1] is listed as 58.5 ± 2.2%. In addition, the mortality is given as 67.4 in the data set with Anopheles funestus (setting [9]); 100 in the data set with Anopheles funestus (setting [11]); 69 with Anopheles funestus (setting [15]); 91.97 in the data set with Gambiae Complex (setting [16]); 4.1 in the data set on Gambiae Complex (setting [17]); 3 in the data set with Gambiae Complex (setting [12]). Moreover, the mortality in the data set with Gambiae Complex (setting [18]) is 95.

With `CC1(C)[C@H](C(=O)O[C@H](C#N)c2cccc(Oc3ccccc3)c2)[C@@H]1C=C(Br)Br` [Deltamethrin, deltamethrin], the “effectiveness with or without piperonyl butoxide (PBO), in words” value in data set [6] was “only effective when partnered with PBO”. Further, the pIC50 with CYP6P2 (setting [14]) was 5.30; on CYP6Z2 [7], 4.86; with CYP6P9a [3] (setting [14]) it was 5.59; in the data set with CYP6M2 [4] (setting [14]), 5.38. Besides, the mortality with Anopheles funestus (setting [9]) is 51.2; in the data set with Anopheles funestus (setting [10]) it was 68.5; in the data set on Anopheles funestus (setting [11]) it was 55.2; in the data set with Anopheles funestus (setting [15]) it was 39; in the data set on Gambiae Complex (setting [16]) it was 92.31; in the data set on Gambiae Complex (setting [17]), 37.2. The mortality with Gambiae Complex (setting [12]) is reported as 18.8; in the data set on Gambiae Complex (setting [13]) it was 47; in the data set with Gambiae Complex (setting [18]), 95.

The record behind these values is publication PMC7893915, “Assessing cross-resistance within the pyrethroids in terms of their interactions with key cytochrome P450 enzymes and resistance in vector populations” (Parasites & Vectors, 2021).
